In patent US8357717B2, “Spiro group-containing amide compounds having bradykinin 1 receptor (B1R) activity” (Gruenenthal GmbH, priority 2009, dated 2013) one finds inhibition data, which are given here for 16 compounds.

A word on the inhibition: it is how much of the control response was suppressed.

Each structure is given as a SMILES string.

The target of one experiment is T1, human B1R receptor (hB1R) (Homo sapiens, UniProt P46663).
T1 construct: expressed in transfected cells; host or cells: CHO K1 cells, stably transfected
T1 sequence (P46663 1-353): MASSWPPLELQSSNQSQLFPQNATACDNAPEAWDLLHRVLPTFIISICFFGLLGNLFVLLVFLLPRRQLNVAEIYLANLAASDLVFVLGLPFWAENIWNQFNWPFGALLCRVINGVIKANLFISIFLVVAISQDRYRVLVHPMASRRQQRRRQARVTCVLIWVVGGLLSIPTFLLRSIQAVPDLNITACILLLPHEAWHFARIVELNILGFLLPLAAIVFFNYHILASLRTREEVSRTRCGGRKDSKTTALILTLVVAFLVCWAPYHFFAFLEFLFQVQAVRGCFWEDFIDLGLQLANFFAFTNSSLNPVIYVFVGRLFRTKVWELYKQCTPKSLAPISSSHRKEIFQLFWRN
Briefly: FLIPR Ca2+ functional study on bradykinin receptor 1, hB1R cells (CHO K1). In kind it is cell-based. Conditions: CHO-K1, 10 μM test substance; CHO K1 cells with human B1R; agonist Lys-Des-Arg9-bradykinin at EC80; read-out: B1R antagonism, human [10 μM] % inhibition. The procedure: (§1) The agonistic or antagonistic activity of substances can be quantified on the bradykinin receptor 1 (B1R) of the species human and rat using ectopically expressing cell lines (CHO K1 cells) and with the aid of a Ca^2+-sensitive dye (Fluo-4) using a fluorescent imaging plate reader (FLIPR). The indication in % activation is based on the Ca^2+ signal after addition of Lys-Des-Arg^9-bradykinin (0.5 nM) or Des-Arg^9-bradykinin (100 nM). Antagonists lead to suppression of the Ca^2+ influx after the addition of the agonist. % Inhibition compared with the maximum achievable inhibition is indicated.
(§2) The agonistic or antagonistic activity of substances can be determined on the bradykinin receptor 1 (B1R) of the species human and rat using the following assay. According to this assay, the Ca^2+ influx through the channel is quantified with the aid of a Ca^2+-sensitive dye (Fluo-4 type, Molecular Probes Europe BV, Leiden, Netherlands) using a Fluorescent Imaging Plate Reader (FLIPR, Molecular Devices, Sunnyvale, USA).
(§3) Chinese hamster ovary cells (CHO K1 cells) which have been stably transfected with the human B1R gene (hB1R cells) or with the B1R gene of the rat (rB1R cells) are used. For functional studies, the cells are plated out on black 96-well plates having a clear base (BD Biosciences, Heidelberg, Germany or Greiner, Frickenhausen, Germany) in a density of 20,000-35,000 cells/well. The cells are left overnight at 37° C. and with 5% CO2 in culture medium (hB1R cells: Nutrient Mixture Ham's F12, Gibco Invitrogen GmbH, Karlsruhe, Germany or DMEM, Sigma-Aldrich, Taufkirchen, Germany; rB1R cells: D-MEM/F12, Gibco Invitrogen GmbH, Karlsruhe, Germany), with 10 vol. % FBS (fetal bovine serum, Gibco Invitrogen GmbH, Karlsruhe, Germany or PAN Biotech GmbH, Aidenbach, Germany). On the following day, the cells are loaded for 60 minutes at 37° C. with 2.13 μM Fluo-4 (Molecular Probes Europe BV, Leiden, Netherlands) in HBSS buffer (Hank's buffered saline solution, Gibco Invitrogen GmbH, Karlsruhe, Germany) […] (Sigma-Aldrich, Taufkirchen, Germany) and 10 mM HEPES (Sigma-Aldrich, Taufkirchen, Germany). The plates are then washed twice with HBSS buffer, and HBSS buffer additionally containing 0.1% BSA (bovine serum albumin; Sigma-Aldrich, Taufkirchen, Germany), 5.6 mM glucose and 0.05% gelatin (Merck KGaA, Darmstadt, Germany) is added to the plates. After incubation for a further 20 minutes at room temperature, the plates are inserted into the FLIPR for Ca^2+ measurement. Alternatively, washing is carried out with buffer A (15 mM HEPES, 80 mM NaCl, 5 mM KCl, 1.2 mM CaCl2, 0.7 mM MgSO4, 2 g/l glucose, 2.5 mM probenecid) followed by loading with buffer A with added 2.5 μM Fluo-4 and 0.025% Pluronic F127 (Sigma-Aldrich, Taufkirchen, Germany). The cells are then washed twice with buffer A and incubated for 30 minutes at room temperature with buffer A additionally containing 0.05% BSA and 0.05% gelatin and are then inserted into the FLIPR for Ca^2+ measurement. The Ca^2+-dependent fluorescence is measured before and after the addition of substances (λex=488 nm, λem=540 nm). Quantification is carried out by measuring the highest fluorescence intensity (FC, fluorescence counts) over time.
(§4) The FLIPR protocol consists of two substance additions. Test substances (10 μM) are first pipetted onto the cells and the Ca^2+ influx is compared with the control (hB1R: Lys-Des-Arg^9-bradykinin >=50 nM; rB1R: Des-Arg^9-bradykinin 10 μM). This gives the activation in %, based on the Ca^2+ signal after addition of Lys-Des-Arg^9-bradykinin (>=50 nM) or Des-Arg^9-bradykinin (10 μM). After 10-20 minutes' incubation, Lys-Des-Arg^9-bradykinin (hB1R) or Des-Arg^9-bradykinin (rB1R) is applied in the concentration of the EC80, and the influx of Ca^2+ is likewise determined. Antagonists lead to suppression of the Ca^2+ influx. The % inhibition compared with the maximum achievable inhibition is calculated. […]
For `Cc1ccc(S(=O)(=O)N2CCc3ccc(C(=O)N4CCC5(CC4)CCN(c4ccncc4)CC5)cc3C2)c2ccccc12` [Compound G-47, (2-(4-Methylnaphthalin-1-ylsulfonyl)-1,2,3,4-tetrahydroisoquinolin-7-yl)(9-(pyridin-4-yl)-3,9-diazaspiro[5.5]undecan-3-yl)methanone], the inhibition at 10 µM was found to be 72%.

Another experiment deals with T2, B1R receptor of the rat (rB1R) (Rattus norvegicus, UniProt P97583).
T2 construct: expressed in transfected cells; host or cells: CHO K1 cells, stably transfected
T2 sequence (P97583 1-337): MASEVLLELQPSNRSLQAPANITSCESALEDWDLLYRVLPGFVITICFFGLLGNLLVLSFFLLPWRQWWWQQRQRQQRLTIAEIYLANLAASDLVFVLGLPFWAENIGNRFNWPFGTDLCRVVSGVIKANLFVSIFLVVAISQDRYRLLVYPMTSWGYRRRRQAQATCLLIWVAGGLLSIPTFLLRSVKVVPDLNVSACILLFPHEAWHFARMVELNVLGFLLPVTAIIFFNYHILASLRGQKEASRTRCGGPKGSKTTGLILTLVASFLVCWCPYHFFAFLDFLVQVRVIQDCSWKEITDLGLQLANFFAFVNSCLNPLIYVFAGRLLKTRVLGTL
In words: FLIPR Ca2+ functional study on bradykinin receptor 1, rB1R cells (CHO K1). In kind it is cell-based. Conditions: 10 μM test substance; CHO K1 cells with rat B1R; agonist Des-Arg9-bradykinin at EC80; read-out: B1R antagonism, rat [10 μM] % inhibition. The procedure: as §1, §2, §3, §4
Turning to `Cc1ccc(S(=O)(=O)N2CCc3ccc(C(=O)N4CCC5(CC4)CCN(c4ccncc4)CC5)cc3C2)c2ccccc12` [Compound G-47, (2-(4-Methylnaphthalin-1-ylsulfonyl)-1,2,3,4-tetrahydroisoquinolin-7-yl)(9-(pyridin-4-yl)-3,9-diazaspiro[5.5]undecan-3-yl)methanone], the inhibition at 10 µM stood at 80%. Same read-out and setting: as for `COc1cc(C)c(S(=O)(=O)N2CCCc3ccc(C(=O)N4CCC5(CC4)CCN(Cc4ccccc4)C5=O)cc32)c(C)c1` [G_CC-026, 2-Benzyl-8-(1-(4-methoxy-2,6-dimethylphenylsulfonyl)-1,2,3,4-tetrahydroquinoline-7-carbonyl)-2,8-diazaspiro[4.5]decan-1-one], the figure is 58%; as for `COc1cc(C)c(S(=O)(=O)N2CCCc3ccc(CC(=O)N4CCC5(CCN(Cc6ccccc6)C5)C4)cc32)c(C)c1` (centres unmarked) [G_CC-054, 1-(7-Benzyl-2,7-diazaspiro[4.4]nonan-2-yl)-2-(1-(4-methoxy-2,6-dimethylphenylsulfonyl)-1,2,3,4-tetrahydroquinolin-7-yl)ethanone], 71%; as for `COc1cc(C)c(S(=O)(=O)N2CCc3ccc(C(=O)N4CCC5(CCN(Cc6ccccc6)C5)C4)cc32)c(C)c1` (centres unmarked) [G_CC-007, (7-Benzyl-2,7-diazaspiro[4.4]nonan-2-yl)(1-(4-methoxy-2,6-dimethylphenylsulfonyl)indoline-6-yl)methanone], 59%. For the compound `COc1cc(C)c(S(=O)(=O)N2CCCc3ccc(C(=O)N4CCC5(CCN(Cc6ccccc6)C5)C4)cc32)c(C)c1` (centres unmarked) [G_CC-027, (7-Benzyl-2,7-diazaspiro[4.4]nonan-2-yl)(1-(4-methoxy-2,6-dimethylphenylsulfonyl)-1,2,3,4-tetrahydroquinolin-7-yl)methanone], the inhibition at 10 µM was found to be 58%. As to `COc1cc(C)c(S(=O)(=O)N2CCc3ccc(C(=O)N4CCC5(CCN(Cc6ccccc6)C5)C4)cc3C2)c(C)c1` (centres unmarked) [G_CC-041, (7-Benzyl-2,7-diazaspiro[4.4]nonan-2-yl)(2-(4-methoxy-2,6-dimethylphenylsulfonyl)-1,2,3,4-tetrahydroisoquinolin-7-yl)methanone], the inhibition at 10 µM was determined as 64%. Same read-out and setting: under `COc1cc(C)c(S(=O)(=O)N2CCCc3ccc(CC(=O)N4CCC5(CC4)CCN(Cc4ccccc4)C5=O)cc32)c(C)c1` [G_CC-053, 2-Benzyl-8-(2-(1-(4-methoxy-2,6-dimethylphenylsulfonyl)-1,2,3,4-tetrahydroquinolin-7-yl)acetyl)-2,8-diazaspiro[4.5]decan-1-one] stands 84%. For `COc1cc(C)c(S(=O)(=O)N2CCc3ccc(C(=O)N4CCC5(CC4)C(=O)NCN5c4ccccc4)cc3C2)c(C)c1` [G_CC-043, 8-(2-(4-Methoxy-2,6-dimethylphenylsulfonyl)-1,2,3,4-tetrahydroisoquinoline-7-carbonyl)-1-phenyl-1,3,8-triazaspiro[4.5]decan-4-one], the inhibition at 10 µM was 74%. On the same count and under the same terms, as for `O=C(c1ccc2c(c1)CN(C(=O)c1ccccc1Cl)CC2)N1CCC2(CC1)CCN(c1ccncc1)CC2` [G_CC-045, (2-(2-Chlorobenzoyl)-1,2,3,4-tetrahydroisoquinolin-7-yl)(9-(pyridin-4-yl)-3,9-diazaspiro[5.5]undecan-3-yl)methanone], the figure is 92%; as for `COc1cc(C)c(S(=O)(=O)N2CCc3ccc(C(=O)N4CCC5(CC4)CCN(c4ccncc4)CC5)cc32)c(C)c1` [G_CC-008, (1-(4-Methoxy-2,6-dimethylphenylsulfonyl)indolin-6-yl)(9-(pyridin-4-yl)-3,9-diazaspiro[5.5]undecan-3-yl)methanone], 100%; as for `O=C(c1ccc2c(c1)CN(C(=O)c1ccccc1Cl)C2)N1CCC2(CC1)CCN(Cc1ccc(F)cc1)C2=O` [G_CC-018, 8-(2-(2-Chlorobenzoyl)isoindoline-5-carbonyl)-2-(4-fluorobenzyl)-2,8-diazaspiro[4.5]decan-1-one], 51%. Still for that read-out and setting: under `COc1cc(C)c(S(=O)(=O)N2CCc3ccc(C(=O)N4CCC5(CC4)CCN(Cc4ccc(F)cc4)C5=O)cc32)c(C)c1` [G_CC-006, 2-(4-Fluorobenzyl)-8-(1-(4-methoxy-2,6-dimethylphenylsulfonyl)indoline-6-carbonyl)-2,8-diazaspiro[4.5]decan-1-one] stands 71%.

With `COc1cc(C)c(S(=O)(=O)N2CCCc3ccc(C(=O)N4CCC5(CC4)C(=O)N(C)CC5c4ccc(F)cc4)cc32)c(C)c1` (centres unmarked) [G_CC-025, 4-(4-Fluorophenyl)-8-(1-(4-methoxy-2,6-dimethylphenylsulfonyl)-1,2,3,4-tetrahydroquinoline-7-carbonyl)-2-methyl-2,8-diazaspiro[4.5]decan-1-one], the inhibition at 10 µM was 51%.

For the compound `COc1cc(C)c(S(=O)(=O)N2CCc3ccc(C(=O)N4CCC5(CC4)CCN(Cc4ccccc4)C5=O)cc3C2)c(C)c1` [G_CC-040, 2-Benzyl-8-(2-(4-methoxy-2,6-dimethylphenylsulfonyl)-1,2,3,4-tetrahydroisoquinoline-7-carbonyl)-2,8-diazaspiro[4.5]decan-1-one], the inhibition at 10 µM worked out at 70%.

Turning to `COc1cc(C)c(S(=O)(=O)N2CCc3ccc(C(=O)N4CCC5(CC4)CCN(Cc4ccc(F)cc4)C5=O)cc3C2)c(C)c1` [G_CC-039, 2-(4-Fluorobenzyl)-8-(2-(4-methoxy-2,6-dimethylphenylsulfonyl)-1,2,3,4-tetrahydroisoquinoline-7-carbonyl)-2,8-diazaspiro[4.5]decan-1-one], the inhibition at 10 µM was 71%. Still for that read-out and setting: as for `O=C(c1ccc2c(c1)N(C(=O)c1ccccc1Cl)CC2)N1CCC2(CC1)CCN(c1ccncc1)CC2` [G_CC-009, (1-(2-Chlorobenzoyl)indolin-6-yl)(9-(pyridin-4-yl)-3,9-diazaspiro[5.5]undecan-3-yl)methanone], the figure is 78%.
